Patent US20130131321A1, “LIGANDS FOR ANTIBODY AND Fc-FUSION PROTEIN PURIFICATION BY AFFINITY CHROMATOGRAPHY” (GRAFFINITY PHARMACEUTICALS GMBH, priority 2010, published 2013)
Read-outs that look alike come from different tables or passages of the source.

What was measured:
[1] = test system: human poly-IgG (h-poly-IgG); test: Microtiter plate chromatography of resins, human poly-IgG (bound, yield); type: binding
Palivizumab = test: Microtiter plate chromatography of resins, Palivizumab (bound, yield); type: binding, humanized
Tocilizumab = test: Microtiter plate chromatography of resins, Tocilizumab (bound, yield); type: binding, humanized
host cell proteins (HCP) = test: Microtiter plate chromatography of resins, host cell proteins (bound); type: binding, CHO
Bevacizumab [2] = biological target: T1, Bevacizumab (Homo sapiens, UniProt P01857); test: Microtiter plate chromatography of resins, Bevacizumab whole IgG (bound, yield, selectivity); type: binding, humanized
T1 construct: fused on or other part: humanised anti-VEGF-A VH domain N-terminal of the gamma-1 constant region (engineered, no UniProt entry)

Bevacizumab [3] = test: as above; type: binding, humanized
[4] = fraction of whole IgG Bevacizumab bound to resin
[5] = mass of whole IgG Bevacizumab eluted / mass injected
[6] = fraction of bound Bevacizumab whole IgG / fraction of bound HCP, truncated beyond values of 10
[7] = fraction of injected protein bound to resin
[8] = fraction of injected host cell proteins bound to resin
[9] = fraction of injected whole IgG bound to resin
[10] = mass eluted / mass injected, whole IgG
[11] = bound Bevacizumab whole IgG / bound HCP, truncated beyond values of 10

| Structure (SMILES) | h-poly-IgG Bound (%) [1] | h-poly-IgG Yield (%) [1] | Palivizumab Bound (%) (Palivizumab) | Palivizumab Yield (%) (Palivizumab) | Tocilizumab Bound (%) (Tocilizumab) | Tocilizumab Yield (%) (Tocilizumab) | HCP Bound (%) (host cell proteins (HCP); host cell proteins) | Bevacizumab IgG Bound (%) (Bevacizumab [2]; [4]) | Bevacizumab IgG Yield (%) (Bevacizumab [2]; [5]) | Selectivity (Bevacizumab [3]) | h-poly-IgG Bound (%) [1, 7] | h-poly-IgG Yield (%) ([1]; mass eluted / mass injected) | Palivizumab Bound (%) (Palivizumab; [7]) | Palivizumab Yield (%) (Palivizumab; mass eluted / mass injected) | Tocilizumab Bound (%) (Tocilizumab; [7]) | Tocilizumab Yield (%) (Tocilizumab; mass eluted / mass injected) | HCP Bound (%) (host cell proteins (HCP); [8]) | Bevacizumab IgG Bound (%) (Bevacizumab [2]; [9]) | Bevacizumab IgG Yield (%) (Bevacizumab [2]; [10]) | further results |
| --- | --- | --- | --- | --- | --- | --- | --- | --- | --- | --- | --- | --- | --- | --- | --- | --- | --- | --- | --- | --- |
| COc1ccc(NC(=O)c2nc(-c3ccco3)no2)cc1C(=O)NCCCN [Ligand L55, 5-[3-(2-Furyl)-1,2,4-oxadiazol-5-ylcarboxamido]-2-methoxybenzoic acid (3-amino-1-propyl)amide] | 100% | 93% | 100% | 99% | 100% | 100% | 31% | 100% | 95% | 3.3 | – | – | – | – | – | – | – | – | – | – |
| COc1ccc(NC(=O)c2cc3ncccn3n2)cc1C(=O)NCCCN [Ligand L56, 2-Methoxy-5-(pyrazolo[1,5-a]pyrimidin-2-ylcarboxamido)benzoic acid (3-amino-1-propyl)amide] | 83% | 83% | 81% | 79% | 95% | 95% | 21% | 100% | 95% | 4.9 | – | – | – | – | – | – | – | – | – | – |
| COc1ccc(NC(=O)c2cn3ccccc3n2)cc1C(=O)NCCCN [Ligand L57, 5-(Imidazo[1,2-a]pyridin-2-ylcarboxamido)-2-methoxybenzoic acid (3-amino-1-propyl)amide] | 53% | 53% | 44% | 42% | 78% | 78% | 16% | 100% | 90% | 6.3 | – | – | – | – | – | – | – | – | – | – |
| COc1ccc(NC(=O)c2nnc(-c3ccco3)o2)cc1C(=O)NCCCN [Ligand L58, 5-[5-(2-Furyl)-1,3,4-oxadiazol-2-yl]carboxamido-2-methoxybenzoic acid (3-amino-1-propyl)amide] | 98% | 93% | 97% | 83% | 100% | 100% | 23% | 100% | 90% | 4.3 | – | – | – | – | – | – | – | – | – | – |
| COc1ccc(NC(=O)c2nn(CCO)c3ccccc23)cc1C(=O)NCCCN [Ligand L59, 5-[1-(2-Hydroxyethyl)indazol-3-ylcarboxamido]-2-methoxybenzoic acid (3-amino-1-propyl)amide] | 71% | 71% | 64% | 64% | 89% | 89% | 32% | 100% | 97% | 3.1 | – | – | – | – | – | – | – | – | – | – |
| COc1ccc(NC(=O)c2nn(C)c3ccccc23)cc1C(=O)NCCOCCOCC(=O)NCCOCCOCC(=O)NCCCN [Ligand L61, 8-{8-[2-Methoxy-5-(1-methylindazol-3-ylcarboxamido)phenylcarboxamido]-3,6-dioxaoctanoylamido}-3,6-dioxaoctanoic acid (3-amino-1-propyl)amide] | 81% | 81% | 67% | 66% | 84% | 84% | 20% | 100% | 92% | 5.1 | – | – | – | – | – | – | – | – | – | – |
| COc1ccc(NC(=O)c2cn3ncccc3n2)cc1C(=O)NCCOCCOCC(=O)NCCCC[C@H](NC(=O)COCCOCCNC(=O)c1cc(NC(=O)c2cn3ncccc3n2)ccc1OC)C(=O)NCCCN [Ligand L62, (S)-2,6-Bis{8-[5-(Imidazo[1,2-b]pyridazin-2-ylcarboxamido)-2-methoxyphenylcarboxamido]-3,6-dioxaoctanoylamido}hexanoic acid (3-amino-1-propyl)amide] | 89% | 89% | 84% | 77% | 95% | 91% | 3% | 100% | 100% | – | – | – | – | – | – | – | – | – | – | Selectivity (Bevacizumab [3]; [6]): 10.0 |
| COc1ccc(NC(=O)c2cn3cccnc3n2)cc1C(=O)NCCCN [Ligand L63, 5-(Imidazo[1,2-a]pyrimidin-2-ylcarboxamido)-2-methoxybenzoic acid (3-amino-1-propyl)amide] | 11% | 10% | 0% | 0% | 4% | 4% | 3% | 100% | 95% | – | – | – | – | – | – | – | – | – | – | Selectivity (Bevacizumab [3]; [6]): 10.0 |
| COc1ccc(NC(=O)c2cc(-c3ccco3)n(C)n2)cc1C(=O)NCCOCCOCC(=O)NCCOCCOCC(=O)NCCCN [Ligand L65, 8-{8-{5-[5-(2-Furyl)-1-methylpyrazol-3-ylcarboxamido]-2-methoxyphenylcarboxamido}-3,6-dioxaoctanoylamido}-3,6-dioxaoctanoic acid (3-amino-1-propyl)amide] | – | – | – | – | – | – | – | – | – | 9.5 | 67% | 67% | 58% | 58% | 74% | 71% | 11% | 100% | 100% | – |
| COc1ccc(NC(=O)c2cn3ccsc3n2)cc1C(=O)NCCOCCOCC(=O)NCCOCCOCC(=O)NCCCN [Ligand L66, 8-{8-[5-(Imidazo[2,1-b]thiazol-6-ylcarboxamido)-2-methoxyphenylcarboxamido]-3,6-dioxaoctanoylamido}-3,6-dioxaoctanoic acid (3-amino-1-propyl)amide] | – | – | – | – | – | – | – | – | – | – | 46% | 46% | 41% | 27% | 54% | 53% | 0% | 100% | 100% | Selectivity (Bevacizumab [3]; [11]): 10.0 |
| COc1ccc(NC(=O)c2nnc(-c3ccco3)o2)cc1C(=O)NCCOCCOCC(=O)NCCOCCOCC(=O)NCCCN [Ligand L67, 8-{8-{5-[5-(2-Furyl)-1,3,4-oxadiazol-2-ylcarboxamido]-2-methoxyphenylcarboxamido}-3,6-dioxaoctanoylamido}-3,6-dioxaoctanoic acid (3-amino-1-propyl)amide] | – | – | – | – | – | – | – | – | – | – | 89% | 87% | 81% | 80% | 91% | 86% | 2% | 100% | 100% | Selectivity (Bevacizumab [3]; [11]): 10.0 |
| COc1ccc(NC(=O)c2cc(-c3csc(C)n3)on2)cc1C(=O)NCCOCCOCC(=O)NCCOCCOCC(=O)NCCCN [Ligand L68, 8-{8-{2-Methoxy-5-[5-(2-methylthiazol-4-yl)isoxazol-3-ylcarboxamido]phenylcarboxamido}-3,6-dioxaoctanoylamido}-3,6-dioxaoctanoic acid (3-amino-1-propyl)amide] | – | – | – | – | – | – | – | – | – | – | 65% | 65% | 65% | 65% | 71% | 71% | 4% | 100% | 100% | Selectivity (Bevacizumab [3]; [11]): 10.0 |
| COc1ccc(NC(=O)c2cn3ccsc3n2)cc1C(=O)NCCOCCOCCNC(=O)NCCOCCOCCN [Ligand L69, N-(8-Amino-3,6-dioxaoctyl)-N′-{8-[5-(imidazo[2,1-b]thiazol-6-ylcarboxamido)-2-methoxyphenylcarboxamido]-3,6-dioxaoctyl}urea] | – | – | – | – | – | – | – | – | – | – | 63% | 63% | 45% | 45% | 78% | 73% | 2% | 100% | 100% | Selectivity (Bevacizumab [3]; [11]): 10.0 |
| NCCCNC(=O)c1cccc(C(=O)Nc2nnc(-c3ccco3)s2)c1 [Ligand L70, Isophthalic acid N-(3-aminopropyl)-N′-[5-(2-furyl)-1,3,4-thiadiazol-2-yl]amide] | – | – | – | – | – | – | – | – | – | 5.4 | 64% | 64% | 55% | 55% | 100% | 100% | 19% | 100% | 83% | – |
| Cn1nc(NC(=O)c2cccc(C(=O)NCCCN)c2)c2ccccc21 [Ligand L71, Isophthalic acid N-(3-aminopropyl)-N′-(1-methylindazol-3-yl)amide] | – | – | – | – | – | – | – | – | – | 4.0 | 45% | 45% | 24% | 24% | 51% | 49% | 25% | 100% | 88% | – |
